In brackets after ≈: the same amount, converted by molar mass.
Tests used:
[1] = Water solubility test (HPLC); format: physicochemical; conditions: double distilled water, thermodynamic from solid
Procedure: 5 mg of the standard test compound was weighed and dissolved in 5 mL of IPA as a stock solution (1 mg/mL). Double distilled water was then diluted to prepare 1000, 100, 50, 25, 12.5, 10, 5, 2.5, 1.25, 1, 0.5, 0.25, 0.125 μg/mL standard solution calibration lines. 60 μL of each concentration standard solution was used for HPLC analysis. Peak areas were integrated to establish a calibration line, and the accuracy of the analysis method was evaluated through the correlation coefficient (R-squared).
1 mL of double distilled water was weighed into a microcentrifuge tube and the test compound was dissolved. Undissolved compounds were ensured to be still present by vortexing for 5 min and sonicating for 20 min. After centrifugation, the supernatant was filtered through a 0.22 μm PTEF membrane. The […] was analyzed by HPLC and the water solubility was calculated from the peak area.

NOZ cells = assay: Cytotoxicity screening, PrestoBlue cell viability; format: cell-based, human; conditions: gallbladder cancer cells
Procedure: (§1) NOZ cells, human gallbladder cancer cells, were obtained from the Japanese Collection of Research Bioresources Cell Bank (JCRB, Japan). Cells were cultured in 90% William's E culture medium (Gibco, USA), 10% fetal bovine serum (FBS) (Gibco, USA), and 1% antibiotics (1×penicillin, streptomycin and glutamine) (Gibco, USA).
(§2) Cell viability was assessed with PrestoBlue assay (Invitrogen, USA). Cells were seeded into 96-well plates and cultured with test compounds according to the manufacturer's protocol. After 48 hours of exposure to test compounds, the culture medium was discarded and rinsed with PBS. Then, add 10 μL PrestoBlue reagent containing 90 μL culture medium to the cells and incubate the cell plate at 37° C. in the dark for 120 min. Absorbance was measured at the experimental wavelength of 570 nm and the normalized wavelength of 600 nm in a SpectraMax iD3 microplate reader. […] Cell viability was expressed as a percentage relative to the control, and calculated using the following formula: cell viability (%)=[(Absorbance of test wells at 570 nm−Absorbance of only culture medium wells at 570 nm−Absorbance of test wells at 600 nm+Absorbance of only culture medium wells at 600 nm)/Absorbance of the control well at 570 nm−Absorbance of only culture medium wells at 570 nm-Absorbance of the control well at 600 nm+Absorbance nm of only culture medium wells at 600 nm)]×100.

HuCCT1 cells = assay: Cytotoxicity screening, PrestoBlue cell viability; format: cell-based, human; conditions: HuCCT1, 20 μg/mL
Procedure: HuCCT1 cells, human cholangiocarcinoma cells, were obtained from iCell Bioscience Inc. (iCell, China). Cells were cultured in 90% RPMI 1640 culture medium (Gibco, USA), 10% fetal bovine serum (FBS) (Gibco, USA), and 1% antibiotics (1×penicillin, streptomycin and glutamine) (Gibco, USA).
as §2

HuH28 cells = assay: Cytotoxicity screening, PrestoBlue cell viability; format: cell-based, human; conditions: HuH28, 20 μg/mL
Procedure: as §1, with “HuH28” for “NOZ”, “liver, and cholangiocarcinoma” for “gallbladder cancer”, “RPMI 1640” for “William's E”
as §2

PANC-1 = assay: Cytotoxicity screening, PrestoBlue cell viability; format: cell-based, human; conditions: PANC-1, pancreatic cancer cells
Procedure: PANC-1, human pancreatic epithelioid carcinoma, was obtained from the American Type Culture Collection (ATCC, USA). Cells were cultured in DMEM culture medium (Gibco, USA) containing 10% FBS (Gibco, USA) and 1% antibiotics (1×penicillin, streptomycin and glutamic acid) (Gibco, USA).
(§3) Cell viability was assessed with PrestoBlue assay (Invitrogen, USA). Cells were seeded into 96-well plates and cultured with test compounds according to the manufacturer's protocol. After 48 hours of exposure to test compounds, the culture medium was discarded and rinsed with PBS. Then, add 10 μL PrestoBlue reagent containing 90 μL culture medium to the cells and incubate the cell plate at 37° C. in the dark for 120 min. Absorbance was measured at the experimental wavelength of 570 nm and the normalized wavelength of 600 nm in a SpectraMax iD3 microplate reader. The result was corrected by subtracting the blank value. Cell viability was expressed as a percentage relative to the control, and calculated using the following formula: cell viability (%)=[(Absorbance of test wells at 570 nm−Absorbance of only culture medium wells at 570 nm−Absorbance of test wells at 600 nm+Absorbance of only culture medium wells at 600 nm)/Absorbance of the control well at 570 nm−Absorbance of only culture medium wells at 570 nm-Absorbance of the control well at 600 nm+Absorbance nm of only culture medium wells at 600 nm)]×100.

BxPC-3 = assay: Cytotoxicity screening, PrestoBlue cell viability; format: cell-based, human; conditions: BxPC-3, pancreatic cancer cells
Procedure: (§4) BxPC-3, human pancreatic adenocarcinoma cells, were obtained from the Bioresource Collection and Research Center (BCRC, Taiwan, China). Cells were cultured in RPMI 1640 culture medium (Gibco, USA) containing 10% FBS (Gibco, USA) and 1% antibiotics (1×penicillin, streptomycin and glutamic acid) (Gibco, USA).
as §2

AsPC-1 = assay: Cytotoxicity screening, PrestoBlue cell viability; format: cell-based, human; conditions: AsPC-1, pancreatic cancer cells
Procedure: as §4, with “AsPC-1,” for “BxPC-3,”, “adenocarcinoma ascites metastatic” for “adenocarcinoma”
as §2

Caco-2 = assay: Cytotoxicity screening, PrestoBlue cell viability; format: cell-based; conditions: Caco-2, colon cancer cells
Procedure: Caco-2, colorectal adenocarcinoma, was obtained from the Bioresource Collection and Research Center ([…]). Cells were cultured in minimal essential Eagle's culture medium (FBS) (Gibco, USA) containing 2 mM L-glutamic acid, 1.5 mg/mL sodium bicarbonate, 0.1 mM non-essential amino acids, 1.0 mM sodium pyruvate (Gibco, USA), 20% fetal bovine serum (Gibco, USA), and 1% antibiotics (1×penicillin, streptomycin and glutamic acid) (Gibco, USA).
as §2, with “Then, add 10 μL PrestoBlue reagent containing 90 μL culture medium to the cells and incubate the cell plate at 37° C. in the dark for 120 min.” left out

HCT-15 = assay: Cytotoxicity screening, PrestoBlue cell viability; format: cell-based; conditions: HCT-15, colon cancer cells
Procedure: as §4, with “HCT-15, colorectal adenocarcinoma, was” for “BxPC-3, human pancreatic adenocarcinoma cells, were”, “fetal bovine serum (FBS)” for “FBS”
as §2

MCF-7 = assay: Cytotoxicity screening, PrestoBlue cell viability; format: cell-based, human; conditions: MCF-7, breast cancer cells
Procedure: MCF7, human breast cancer, was obtained from the Bioresource Collection and Research Center (BCRC, Taiwan, China). Cells were cultured in minimal essential Eagle's culture medium (FBS) (Gibco, USA) containing 2 mM L-glutamic acid, 1.5 mg/mL sodium bicarbonate, 0.1 mM non-essential amino acids, 1.0 mM sodium pyruvate (Gibco, USA), 10% fetal bovine serum (Gibco, USA) and 1% antibiotics (1×penicillin, streptomycin and glutamic acid) (Gibco, USA).
as §2, with “Then, add 10 μL PrestoBlue reagent containing 90 μL culture medium to the cells and incubate the cell plate at 37° C. in the dark for 120 min.” left out

A549 = assay: Cytotoxicity screening, PrestoBlue cell viability; format: cell-based, human; conditions: A549, lung cancer cells
Procedure: as §4, with “A549,” for “BxPC-3,”, “non-small cell lung cancer” for “pancreatic adenocarcinoma”, “F12K” for “RPMI 1640”
as §2

AML12 cells = assay: Cytotoxicity screening, PrestoBlue cell viability; format: cell-based, mouse; conditions: AML12, normal hepatocytes
Procedure: AML12 cells, alpha mouse liver 12, were obtained from the American Type Culture Collection (ATCC, USA). Cells were cultured in DMEM: F12 culture medium (Gibco, USA), 10% fetal bovine serum (FBS) (Gibco, USA), 10 μg/mL insulin, 5.5 μg/mL transferrin, 5 ng/ml selenium, 40 ng/ml dexamethasone (Gibco, USA), and 1% antibiotics (1×penicillin, streptomycin and glutamic acid) (Gibco, USA).
as §2, with “Then, add 10 μL PrestoBlue reagent containing 90 μL culture medium to the cells and incubate the cell plate at 37° C. in the dark for 120 min.” left out

Vero E6 cells = assay: Cytotoxicity screening, PrestoBlue cell viability; format: cell-based, cercopithecus aethiops; conditions: Vero E6, normal kidney cells
Procedure: Vero E6 cells, cercopithecus aethiops renal epithelial cells, were obtained from the American Type Culture Collection (ATCC, USA). Cells were cultured in Dulbecco's Modified Eagle Medium (DMEM) (Gibco, USA) containing 10% FBS (Gibco, USA), 100 U/mL penicillin, and 100 μg/mL streptomycin (Gibco, USA). Cell viability was assessed with PrestoBlue assay (Invitrogen, USA). Cells were seeded into 96-well plates and cultured with test compounds according to the manufacturer's protocol. After 48 hours of exposure to test compounds, the culture medium was discarded and rinsed with PBS. Then, add 10 μL PrestoBlue reagent containing 90 μL culture medium to the cells and incubate the cell plate at 37° C. in the dark for 120 min. Absorbance was measured at the experimental wavelength of 570 nm and the normalized wavelength of 600 nm in a SpectraMax iD3 microplate reader. […] Cell viability was expressed as a percentage relative to the control, and calculated using the following formula: cell viability (%)=[(Absorbance of test wells at 570 nm−Absorbance of only culture medium wells at 570 nm−Absorbance of test wells at 600 nm+Absorbance of only culture medium wells at 600 nm)/Absorbance of the control well at 570 nm−Absorbance of only culture medium wells at 570 nm-Absorbance of the control well at 600 nm+Absorbance nm of only culture medium wells at 600 nm)]×100.

[2] = tested on: normal cells or cancer cells; assay: Cytotoxicity tests in various cell lines (summary); format: cell-based; conditions: normal cells and cancer cells, various cell lines (Table 3)
Procedure: as §3
Taking the linker of the present invention (n=2; X, Y, Z=O; R^1, R^2, R^4=H; R^3=CH3) as an example, the linker has significant advantages in terms of synthetic elastic properties. […]

| SMILES | solubility [1] | 20 μg/mL 48-hour survival rate (NOZ cells) | 20 μg/mL 48-hour survival rate (HuCCT1 cells) | 20 μg/mL 48-hour survival rate (HuH28 cells) | 20 μg/mL 48-hour survival rate (PANC-1) | 20 μg/mL 48-hour survival rate (BxPC-3) | 20 μg/mL 48-hour survival rate (AsPC-1) | 20 μg/mL 48-hour survival rate (Caco-2) | 20 μg/mL 48-hour survival rate (HCT-15) | 20 μg/mL 48-hour survival rate (MCF-7) | 20 μg/mL 48-hour survival rate (A549) | 20 μg/mL 48-hour survival rate (AML12 cells) | 20 μg/mL 48-hour survival rate (Vero E6 cells) | cytotoxicity [2] |
| --- | --- | --- | --- | --- | --- | --- | --- | --- | --- | --- | --- | --- | --- | --- |
| CC(C)=CCC/C(C)=C/CC/C(C)=C/CO [Farnesol, reference compound] | 87.4 µg/mL (≈ 393 µM) |  |  |  |  |  |  |  |  |  |  |  |  |  |
| C/C(=C\CO)CC/C=C(\C)CCC(O)C(C)C(=O)O (stereo not drawn) [Linker of the present invention, (6E,10E)-3,12-dihydroxy-2,6,10-trimethyldodec-6,10-dienoic acid] | 780 µg/mL (≈ 2890 µM) | 107.26 ± 14.11% | 110.04 ± 0.17% | 87.92 ± 5.14% | 106.67 ± 8.24% | 91.33 ± 5.93% | 93.02 ± 5.01% | 99.94 ± 3.16% | 88.96 ± 15.45% | 89.45 ± 8.95% | 82.28 ± 5.53% | 91.99 ± 2.6% | 96.28 ± 3.66% | not cytotoxic |
